From patent US10106558B2, “Azolobenzazine compounds, compositions comprising these compounds and their use for controlling invertebrate pests” (BASF SE, priority 2015, dated 2018)

Experiments:
Type in all cases: in vivo
[1] = system: yellow fever mosquito (Aedes aegypti); assay: whole plant or invertebrate; settings: 48 h, larval mortality visually assessed after 2 days, read-out: mortality in comparison with untreated controls
Summary of the method: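 Freshly hatched larvae (5-15 per well) held in 200 μl tap water; compounds formulated in 25% DMSO/water and 2.5 μl sprayed at several concentrations, two replicates. Plates kept 2 days at 28 °C, 80% RH, then larval mortality scored visually.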

[2] = system: Southern Armyworm (Spodoptera eridania), 2nd instar larvae; assay: Action on southern armyworm 2nd instar larvae, sprayed lima bean plants; settings: 96 h, 4 days after treatment, read-out: mortality in comparison with untreated controls
Summary of the method: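 Lima bean plants (Sieva, 1st true leaf) sprayed electrostatically with compound in 50% acetone/water plus 0.01% nonionic surfactant, dried, then infested with 10–11 larvae in bags. Held at about 25 °C, 20–40% RH; mortality and reduced feeding scored 4 days after treatment versus untreated plants.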

[3] = system: Orchid Thrips (Dichromothrips corbetti); assay: Action on orchid thrips, floral-immersion technique; settings: adult thrips, 72 hours after treatment, read-out: mortality in comparison with untreated controls
Summary of the method: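 Lab-colony adult thrips, about 20 per arena, were exposed to whole orchid flower petals dipped in compound diluted in 1:1 acetone:water with 0.01% v/v Kinetic HV and then dried. Arenas were held under continuous light at about 28 °C. Live thrips were counted after 3 days and percent mortality recorded at 72 h post-treatment.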

[4] = system: Silverleaf Whitefly (Bemisia argentifolii) (Adults); assay: Action on silverleaf whitefly adults, sprayed cotton plants; settings: 72 h, 3 days after treatment, read-out: mortality in comparison with untreated controls
Description: Example B4: Action on Silverleaf Whitefly (Bemisia argentifolii) (Adults)
The active compounds were formulated by a Tecan liquid handler in 100% cyclohexanone as a 10,000 ppm solution supplied in tubes. The 10,000 ppm solution was serially diluted in 100% cyclohexanone to make interim solutions. These served as stock solutions for which final dilutions were made by the Tecan in 50% acetone:50% water (v/v) into 5 or 10 ml glass vials. A nonionic surfactant (Kinetic®) was included in the solution at a volume of 0.01% (v/v). The vials were then inserted into an automated electrostatic sprayer equipped with an atomizing nozzle for application to plants/insects.
Cotton plants at the cotyledon stage (one plant per pot) were sprayed by an automated electrostatic plant sprayer equipped with an atomizing spray nozzle. The plants were dried in the sprayer fume hood and then removed from the sprayer. Each pot was placed into a plastic cup and about 10 to 12 whitefly adults (approximately 3-5 days old) were introduced. The insects were collected using an aspirator and a nontoxic Tygon® tubing connected to a barrier pipette tip. The tip, containing the collected insects, was then gently inserted into the soil containing the treated plant, allowing insects to crawl out of the tip to reach the foliage for feeding. Cups were covered with a reusable screened lid. Test plants were maintained in a growth room at about 25° C. and about 20-40% relative humidity for 3 days, avoiding direct exposure to fluorescent light (24 hour photoperiod) to prevent trapping of heat inside the cup. Mortality was assessed 3 days after treatment, compared to untreated control plants.

[5] = system: Diamond Back Moth (Plutella xylostella); assay: Action on diamond back moth, dipped cabbage leaves; settings: 3rd instar larvae, 72 hours after treatment, read-out: mortality in comparison with untreated controls
Summary of the method: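 Cabbage leaves dipped in compound in 1:1 water:acetone with 0.01% (vol/vol) surfactant, air-dried, placed on moist filter paper and infested with ten 3rd-instar larvae. Mortality scored 72 hours after treatment; feeding damage rated on a 0-100% scale.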

[6] = system: boll weevil (Anthonomus grandis); assay: Action on boll weevil, eggs on insect diet in 96-well microtiter plates; settings: 120 h, 800 ppm, egg and larval mortality visually assessed after 5 days, read-out: mortality in comparison with untreated controls
Summary of the method: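 Diet in 96-well plates was infested with 5-10 A. grandis eggs and sprayed with compounds formulated in 75% water/25% DMSO, at several concentrations, in two replicates. Plates were held 5 days at about 25±1 °C and 75±5% RH. Egg and larval mortality was then scored visually.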

[7] = system: tobacco budworm (Heliothis virescens); assay: Action on tobacco budworm, eggs on insect diet in 96-well microtiter plates; settings: 120 h, egg and larval mortality visually assessed after 5 days, read-out: mortality in comparison with untreated controls
Summary of the method: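 Compounds in 25% DMSO/water sprayed (10 μl) onto insect diet holding 15–25 H. virescens eggs, two replicates at several concentrations. Held 5 days at about 28±1 °C, 80±5% RH. Egg and larval mortality scored visually.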

[8] = system: Mediterranean fruitfly (Ceratitis capitata); assay: Action on Mediterranean fruitfly, eggs on insect diet in microtiter plates; settings: 120 h, egg and larval mortality visually assessed after 5 days, read-out: mortality in comparison with untreated controls
Summary of the method: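 Microtiter plates held insect diet plus 50-80 C. capitata eggs; compounds in 75% water/25% DMSO were sprayed onto the diet at several concentrations, two replicates. Plates were kept at about […] and […] relative humidity for 5 days, then egg and larval mortality was scored visually.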

[9] = system: vetch aphid (Megoura viciae); assay: Action on vetch aphid, broad bean leaf disks in 24-well microtiter plates; settings: foliar, 120 h, adult aphids on treated leaf disks, 5 days, read-out: mortality in comparison with untreated controls
Description: Example B7: Action on Vetch Aphid (Megoura viciae)
For evaluating control of vetch aphid (Megoura viciae) through contact or systemic means the test unit consisted of 24-well-microtiter plates containing broad bean leaf disks.
The compounds were formulated using a solution containing 75% v/v water and 25% v/v DMSO. Different concentrations of formulated compounds were sprayed onto the leaf disks at 2.5 μl, using a custom built micro atomizer, at two replications.
After application, the leaf disks were air-dried and 5-8 adult aphids placed on the leaf disks inside the microtiter plate wells. The aphids were then allowed to suck on the treated leaf disks and incubated at about 23±1° C. and about 50±5% relative humidity for 5 days. Aphid mortality and fecundity was then visually assessed.

CC(C)c1ccccc1N1CCS/C1=N/N=C/c1ccc2c(ccc3c2ncn3-c2ccc(OC(F)(F)F)cc2)n1 [Compound C-21, (E)-3-(2-isopropylphenyl)-N-[(E)-[3-[4-(trifluoromethoxy)phenyl]imidazo[4,5-f]quinolin-7-yl]methyleneamino]thiazolidin-2-imine]
≥ 75%: mortality at 800 ppm [1] | mortality at 500 ppm [2] | mortality at 500 ppm [3] | mortality at 500 ppm [4] | mortality at 500 ppm [5] | mortality at 800 ppm [6] | mortality at 800 ppm [7] | mortality at 800 ppm [8] | mortality at 800 ppm [9]
